Test results published in PMC7224190, “Pharmacological inhibition of PRMT7 links arginine monomethylation to the cellular stress response” (Nature Communications, 2020).

Legend:
PRMT7 [1] = molecular target: T1, PRMT7 (Homo sapiens, UniProt Q9NVM4); assay: radiometric enzyme kinetics (Km of the methyl donor) with HSPA8 as substrate in presence of ATP; assay type: biochemical
T1 sequence (Q9NVM4 1-692): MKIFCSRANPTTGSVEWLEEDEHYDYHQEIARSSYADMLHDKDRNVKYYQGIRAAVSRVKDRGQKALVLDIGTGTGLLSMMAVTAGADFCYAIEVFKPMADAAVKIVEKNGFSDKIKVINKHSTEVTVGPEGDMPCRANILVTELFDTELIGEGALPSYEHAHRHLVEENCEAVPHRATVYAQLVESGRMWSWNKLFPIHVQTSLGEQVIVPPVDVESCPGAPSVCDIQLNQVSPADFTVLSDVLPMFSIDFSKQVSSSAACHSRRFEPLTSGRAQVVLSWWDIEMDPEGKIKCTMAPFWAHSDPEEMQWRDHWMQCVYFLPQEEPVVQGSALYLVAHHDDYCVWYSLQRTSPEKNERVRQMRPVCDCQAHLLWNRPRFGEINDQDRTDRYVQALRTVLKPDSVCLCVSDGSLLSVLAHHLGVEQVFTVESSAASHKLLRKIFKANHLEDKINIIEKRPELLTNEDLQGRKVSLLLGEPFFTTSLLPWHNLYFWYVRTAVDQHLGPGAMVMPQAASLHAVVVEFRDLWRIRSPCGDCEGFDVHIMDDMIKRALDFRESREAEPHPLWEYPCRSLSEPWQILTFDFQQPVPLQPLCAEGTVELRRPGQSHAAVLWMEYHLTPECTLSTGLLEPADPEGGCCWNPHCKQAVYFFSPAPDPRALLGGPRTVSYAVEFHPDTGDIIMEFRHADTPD

PRMT7 [2] = molecular target: T1, PRMT7; assay: radiometric SPA methyltransferase assay, 3H-SAM and H2B ([…]); assay type: biochemical

| Km (PRMT7 [1]) [µM] | Compound | IC50 (PRMT7 [2]) [µM] |
| --- | --- | --- |
| 1.6 ± 0.1 | C[S@@+](CC[C@H](N)C(=O)O)C[C@H]1O[C@@H](n2cnc3c(N)ncnc32)[C@H](O)[C@@H]1O [SAM] |  |
|  | NCCCSC[C@H]1O[C@@H](n2cnc3c(N)ncnc32)[C@H](O)[C@@H]1O [SGC0911] | 1 |
